Experimental data reported in patent publication US20170355705A1 (GlaxoSmithKline Intellectual Property (No.2) Limited, priority 2014, published 2017).

Molecular target: T1, SIRT1 (Homo sapiens, UniProt Q96EB6)
T1 sequence (Q96EB6 1-747): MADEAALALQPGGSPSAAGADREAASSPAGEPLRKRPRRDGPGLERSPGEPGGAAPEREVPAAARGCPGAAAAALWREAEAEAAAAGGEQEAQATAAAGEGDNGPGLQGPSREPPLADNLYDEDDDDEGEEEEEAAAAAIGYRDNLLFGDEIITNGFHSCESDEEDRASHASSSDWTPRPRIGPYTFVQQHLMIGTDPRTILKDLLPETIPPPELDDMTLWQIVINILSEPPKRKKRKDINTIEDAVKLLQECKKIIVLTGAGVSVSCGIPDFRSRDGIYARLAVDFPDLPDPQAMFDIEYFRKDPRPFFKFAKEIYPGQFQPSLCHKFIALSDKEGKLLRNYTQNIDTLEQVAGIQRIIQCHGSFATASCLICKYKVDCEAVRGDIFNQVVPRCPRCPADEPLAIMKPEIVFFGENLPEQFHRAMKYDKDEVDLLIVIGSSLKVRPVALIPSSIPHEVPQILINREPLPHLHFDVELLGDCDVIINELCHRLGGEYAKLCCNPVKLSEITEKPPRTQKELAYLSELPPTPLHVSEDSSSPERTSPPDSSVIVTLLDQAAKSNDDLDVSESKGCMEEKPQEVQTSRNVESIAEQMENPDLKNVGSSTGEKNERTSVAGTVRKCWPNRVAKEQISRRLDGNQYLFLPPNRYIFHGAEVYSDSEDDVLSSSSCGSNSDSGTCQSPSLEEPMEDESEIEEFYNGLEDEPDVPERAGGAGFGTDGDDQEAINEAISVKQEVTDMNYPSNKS
Assay: Trp mass spectrometry assay of SIRT1 activity (EC1.5, percent maximum activation)
Format: biochemical
Details: Trp mass spectrometry assay; for TRP Activity (EC1.5): EC1.5 = concentration giving 150% activation of SIRT1; for TRP MAX RESP (percent maximum fold activation): percent maximum activation of SIRT1
How it was run: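 Activation values derive from mass-spectrometric measurement of NAD-dependent deacetylation product after a 25 min reaction of bacterially expressed His-tagged SIRT1 with a fluorophore-labelled Trp peptide.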

| Structure (SMILES) | TRP Activity (EC1.5) | TRP MAX RESP (percent maximum fold activation) |
| --- | --- | --- |
| CCc1cnc(NC(=O)N2c3nc(-c4ccnc(C)c4)ccc3N3CC[C@H]2C3)cn1 [Example 161, (4S)-N-(5-ethylpyrazin-2-yl)-7-(2-methylpyridin-4-yl)-3,4-dihydro-1,4-methanopyrido[2,3-b][1,4]diazepine-5(2H)-carboxamide] | A (EC1.5<1 μM) | A (Fold activation ≧150%) |
| Cc1ncc(-c2ccc3c(n2)N(C(=O)Nc2cnccn2)[C@H]2CCN3C2)o1 [Example 162, (4S)-7-(2-methyloxazol-5-yl)-N-(pyrazin-2-yl)-3,4-dihydro-1,4-methanopyrido[2,3-b][1,4]diazepine-5(2H)-carboxamide] | B (EC1.5 1-25 μM) | A (Fold activation ≧150%) |
| Cc1cc(-c2ccc3c(n2)N(C(=O)Nc2cncnc2)[C@H]2CCN3C2)ccn1 [Example 163, (4S)-7-(2-methylpyridin-4-yl)-N-(pyrimidin-5-yl)-3,4-dihydro-1,4-methanopyrido[2,3-b][1,4]diazepine-5(2H)-carboxamide] | C (EC1.5>25 μM) | A (Fold activation ≧150%) |
| Cc1cc(-c2ccc3c(n2)N(C(=O)Nc2cnc(C4CC4)cn2)[C@H]2CCN3C2)ccn1 [Example 164, (4S)-N-(5-cyclopropylpyrazin-2-yl)-7-(2-methylpyridin-4-yl)-3,4-dihydro-1,4-methanopyrido[2,3-b][1,4]diazepine-5(2H)-carboxamide] | B (EC1.5 1-25 μM) | A (Fold activation ≧150%) |
| Cc1ncc(-c2ccc3c(n2)N(C(=O)Nc2cnccn2)[C@H]2CCN3C2)cn1 [Example 165, (4S)-7-(2-methylpyrimidin-5-yl)-N-(pyrazin-2-yl)-3,4-dihydro-1,4-methanopyrido[2,3-b][1,4]diazepine-5(2H)-carboxamide] | B (EC1.5 1-25 μM) | A (Fold activation ≧150%) |
| Cc1cc(-c2ccc3c(n2)N(C(=O)Nc2cncc(C4CC4)n2)[C@H]2CCN3C2)ccn1 [Example 166, (4S)-N-(6-cyclopropylpyrazin-2-yl)-7-(2-methylpyridin-4-yl)-3,4-dihydro-1,4-methanopyrido[2,3-b][1,4]diazepine-5(2H)-carboxamide] | A (EC1.5<1 μM) | A (Fold activation ≧150%) |
| Cc1cc(-c2ccc3c(n2)N(C(=O)Nc2c[nH]nn2)[C@H]2CCN3C2)ccn1 [Example 167, (4S)-7-(2-methylpyridin-4-yl)-N-(1H-1,2,3-triazol-4-yl)-3,4-dihydro-1,4-methanopyrido[2,3-b][1,4]diazepine-5(2H)-carboxamide] | B (EC1.5 1-25 μM) | A (Fold activation ≧150%) |
| Cc1cc(-c2ccc3c(n2)N(C(=O)N[C@@H](C)c2ccccn2)[C@H]2CCN3C2)ccn1 [Example 168, (4S)-7-(2-methylpyridin-4-yl)-N-((S)-1-(pyridin-2-yl)ethyl)-3,4-dihydro-1,4-methanopyrido[2,3-b][1,4]diazepine-5(2H)-carboxamide] | C (EC1.5>25 μM) | B (Fold Activation <150%) |
| Cc1cc(-c2ccc3c(n2)N(C(=O)N[C@H](C)c2ccccn2)[C@H]2CCN3C2)ccn1 [Example 169, (4S)-7-(2-methylpyridin-4-yl)-N-((R)-1-(pyridin-2-yl)ethyl)-3,4-dihydro-1,4-methanopyrido[2,3-b][1,4]diazepine-5(2H)-carboxamide] | C (EC1.5>25 μM) | B (Fold Activation <150%) |
| Cc1cc(-c2ccc3c(n2)N(C(=O)Nc2cnccn2)[C@H]2CCN3C2)cnc1C [Example 171, (4S)-7-(5,6-dimethylpyridin-3-yl)-N-(pyrazin-2-yl)-3,4-dihydro-1,4-methanopyrido[2,3-b][1,4]diazepine-5(2H)-carboxamide] | A (EC1.5<1 μM) | A (Fold activation ≧150%) |
| CN(C)c1cccc(-c2ccc3c(n2)N(C(=O)Nc2cnccn2)[C@H]2CCN3C2)c1 [Example 172, (4S)-7-(3-(dimethylamino)phenyl)-N-(pyrazin-2-yl)-3,4-dihydro-1,4-methanopyrido[2,3-b][1,4]diazepine-5(2H)-carboxamide] | B (EC1.5 1-25 μM) | A (Fold activation ≧150%) |
| Cc1cc(-c2ccc3c(n2)N(C(=O)N2CCCC2)[C@H]2CCN3C2)ccn1 [Example 173, ((4S)-7-(2-methylpyridin-4-yl)-3,4-dihydro-1,4-methanopyrido[2,3-b][1,4]diazepin-5(2H)-yl)(pyrrolidin-1-yl)methanone] | C (EC1.5>25 μM) | B (Fold Activation <150%) |
| Cc1cc(-c2ccc3c(n2)N(C(=O)N2CCN(C)CC2)[C@H]2CCN3C2)ccn1 [Example 174, (4-methylpiperazin-1-yl)((4S)-7-(2-methylpyridin-4-yl)-3,4-dihydro-1,4-methanopyrido[2,3-b][1,4]diazepin-5(2H)-yl)methanone] | C (EC1.5>25 μM) | B (Fold Activation <150%) |
| Cc1cc(-c2ccc3c(n2)N(C(=O)NC2CCCC2)[C@H]2CCN3C2)ccn1 [Example 175, (4S)-N-cyclopentyl-7-(2-methylpyridin-4-yl)-3,4-dihydro-1,4-methanopyrido[2,3-b][1,4]diazepine-5(2H)-carboxamide] | B (EC1.5 1-25 μM) | A (Fold activation ≧150%) |
| O=C(Nc1cnccn1)N1c2nc(-c3ccn[nH]3)ccc2N2CC[C@H]1C2 [Example 176, (4S)-N-(pyrazin-2-yl)-7-(1H-pyrazol-5-yl)-3,4-dihydro-1,4-methanopyrido[2,3-b][1,4]diazepine-5(2H)-carboxamide] | B (EC1.5 1-25 μM) | A (Fold activation ≧150%) |
| O=C(O)c1cc(-c2ccc3c(n2)N(C(=O)Nc2cnccn2)[C@H]2CCN3C2)ccn1 [Example 177, 4-((4S)-5-(pyrazin-2-ylcarbamoyl)-2,3,4,5-tetrahydro-1,4-methanopyrido[2,3-b][1,4]diazepin-7-yl)picolinic acid] | C (EC1.5>25 μM) | B (Fold Activation <150%) |
| Cc1ccc(NC(=O)N2c3nc(-c4ccnc(C)c4)ccc3N3CC[C@H]2C3)cn1 [Example 178, (4S)-N-(6-methylpyridin-3-yl)-7-(2-methylpyridin-4-yl)-3,4-dihydro-1,4-methanopyrido[2,3-b][1,4]diazepine-5(2H)-carboxamide] | B (EC1.5 1-25 μM) | A (Fold activation ≧150%) |
| CN(C)c1cc(-c2ccc3c(n2)N(C(=O)Nc2cnccn2)[C@H]2CCN3C2)ccn1 [Example 179, (4S)-7-(2-(dimethylamino)pyridin-4-yl)-N-(pyrazin-2-yl)-3,4-dihydro-1,4-methanopyrido[2,3-b][1,4]diazepine-5(2H)-carboxamide] | B (EC1.5 1-25 μM) | A (Fold activation ≧150%) |
| O=C(Nc1cnccn1)N1c2nc(-c3ccc(C4CC4)nc3)ccc2N2CC[C@H]1C2 [Example 180, (4S)-7-(6-cyclopropylpyridin-3-yl)-N-(pyrazin-2-yl)-3,4-dihydro-1,4-methanopyrido[2,3-b][1,4]diazepine-5(2H)-carboxamide] | B (EC1.5 1-25 μM) | A (Fold activation ≧150%) |
| O=C(Nc1cnccn1)N1c2nc(N3CCCCC3)ccc2N2CC[C@H]1C2 [Example 181, (4S)-7-(piperidin-1-yl)-N-(pyrazin-2-yl)-3,4-dihydro-1,4-methanopyrido[2,3-b][1,4]diazepine-5(2H)-carboxamide] | B (EC1.5 1-25 μM) | A (Fold activation ≧150%) |
